What was measured:
MALME-3M [1] = test system: MALME-3M
MALME-3M [2] = test: panel of 60 human tumor cell lines, growth inhibition (Melanoma); details: MALME-3M
RPMI-8226 = test: panel of 60 human tumor cell lines, growth inhibition (Leukemia); details: RPMI-8226; for GI50 / TGI: NCI five dose

C=C1C(=O)O[C@H]2[C@H]1CC/C(COC(=O)NCCN1CCCCC1)=C\CC[C@@]1(C)O[C@@H]21 [JVM 2-13]
CC50 (HT29): 50.4 µM
CC50 (HCC-2998): 70.1 µM
CC50 (MCF7): 62.5 µM
CC50 (K-562): > 100 µM
CC50 (NCI-H460): 78.1 µM
CC50 (MDA-MB-231/ATCC): 56.5 µM
CC50 (SNB-19): 73.1 µM
CC50 (M14): 55.1 µM
CC50 (MDA-MB-435): 43.8 µM
CC50 (U251): 64.1 µM
CC50 (NCI-H322M): 61.1 µM
CC50 (786-0): 56.2 µM
CC50 (TK-10): 35.8 µM
CC50 (SR): > 100 µM
CC50 (BT-549): 44.3 µM
CC50 (UO-31): 49.5 µM
CC50 (HS 578T): > 100 µM
CC50 (MALME-3M [1]): 50.6 µM
CC50 (HCT-15): 50.7 µM
CC50 (RXF 393): 37.3 µM
CC50 (OVCAR-5): 55.2 µM
CC50 (PC-3): 70.9 µM
CC50 (CAKI-1): 40.4 µM
CC50 (HOP-62): 68.5 µM
GI50 (MALME-3M [2]): 1.47 µM
TGI (MALME-3M [2]): 4.6e-06 M
Percent Growth (MALME-3M [2]; Log10 Concentration −4.0): −57%
Percent Growth (MALME-3M [2]; Log10 Concentration −5.0): −34%
Percent Growth (MALME-3M [2]; Log10 Concentration −6.0): 67%
Percent Growth (MALME-3M [2]; Log10 Concentration −7.0): 99%
Percent Growth (MALME-3M [2]; Log10 Concentration −8.0): 103%
CC50 (NCI/ADR-RES): > 100 µM
CC50 (LOX IMVI): 56.2 µM
CC50 (SF-268): 60.2 µM
CC50 (MOLT-4): > 100 µM
CC50 (SW-620): 50.3 µM
CC50 (SK-MEL-5): 58.3 µM
CC50 (SK-MEL-28): 47.2 µM
CC50 (HOP-92): 42.1 µM
CC50 (OVCAR-8): 58.4 µM
CC50 (SK-OV-3): > 100 µM
CC50 (T-47D): 62.4 µM
CC50 (NCI-H23): 65.5 µM
CC50 (SF-295): > 100 µM
CC50 (SNB-75): 48.8 µM
CC50 (NCI-H522): 7.25 µM
CC50 (UACC-62): 50.1 µM
CC50 (A498): 53.1 µM
CC50 (SK-MEL-2): 69.7 µM
CC50 (CCRF-CEM): > 100 µM
CC50 (A549/ATCC): 98.5 µM
CC50 (UACC-257): 49.9 µM

C=C1C(=O)O[C@H]2[C@H]1CC/C(COC(=O)N1CCN(C)CC1)=C\CC[C@@]1(C)O[C@@H]21 [JVM 2-44]
CC50 (HT29): 62 µM
CC50 (HCC-2998): 71.9 µM
CC50 (MCF7): 60.1 µM
CC50 (K-562): > 100 µM
CC50 (NCI-H460): > 100 µM
CC50 (MDA-MB-231/ATCC): 67 µM
CC50 (SNB-19): > 100 µM
CC50 (M14): 69.9 µM
CC50 (MDA-MB-435): 57.5 µM
CC50 (U251): 88.7 µM
CC50 (NCI-H322M): > 100 µM
CC50 (786-0): 72.3 µM
CC50 (TK-10): 41.6 µM
CC50 (SR): > 100 µM
CC50 (BT-549): 49 µM
CC50 (UO-31): 47.6 µM
CC50 (HS 578T): > 100 µM
CC50 (MALME-3M [1]): 65.4 µM
CC50 (HCT-15): 56.6 µM
CC50 (RXF 393): 48.6 µM
CC50 (OVCAR-5): 68.6 µM
CC50 (PC-3): > 100 µM
CC50 (CAKI-1): 42.8 µM
CC50 (HOP-62): > 100 µM
GI50 (MALME-3M [2]): 3.33 µM
TGI (MALME-3M [2]): 1.20E−5
Mean Optical Densities (MALME-3M [2]; Log10 Concentration −4.0): 0.168
Percent Growth (MALME-3M [2]; Log10 Concentration −4.0): −63%
Mean Optical Densities (MALME-3M [2]; Log10 Concentration −5.0): 0.461
Percent Growth (MALME-3M [2]; Log10 Concentration −5.0): 5%
Mean Optical Densities (MALME-3M [2]; Log10 Concentration −6.0): 0.705
Percent Growth (MALME-3M [2]; Log10 Concentration −6.0): 99%
Mean Optical Densities (MALME-3M [2]; Log10 Concentration −7.0): 0.680
Percent Growth (MALME-3M [2]; Log10 Concentration −7.0): 89%
Mean Optical Densities (MALME-3M [2]; Log10 Concentration −8.0): 0.702
Percent Growth (MALME-3M [2]; Log10 Concentration −8.0): 98%
CC50 (NCI/ADR-RES): > 100 µM
CC50 (LOX IMVI): 55.9 µM
CC50 (SF-268): 75.7 µM
CC50 (MOLT-4): > 100 µM
CC50 (SW-620): 58.3 µM
CC50 (SK-MEL-5): 58.7 µM
CC50 (SK-MEL-28): 56.5 µM
CC50 (HOP-92): 44.3 µM
CC50 (OVCAR-8): 80.6 µM
CC50 (SK-OV-3): > 100 µM
CC50 (T-47D): 82.3 µM
CC50 (NCI-H23): 82.4 µM
CC50 (SF-295): > 100 µM
CC50 (SNB-75): 61.2 µM
CC50 (NCI-H522): 8.2 µM
CC50 (UACC-62): 54.1 µM
CC50 (A498): > 100 µM
CC50 (SK-MEL-2): 75.3 µM
CC50 (CCRF-CEM): > 100 µM
CC50 (A549/ATCC): > 100 µM
CC50 (UACC-257): 54.1 µM

C=C1C(=O)O[C@H]2[C@H]1CC/C(COC(=O)NCCO)=C\CC[C@@]1(C)O[C@@H]21 [JVM 2-50]
Percent Growth (RPMI-8226; Log10 Concentration −4.0): −49%
Percent Growth (RPMI-8226; Log10 Concentration −5.0): 33%
Percent Growth (RPMI-8226; Log10 Concentration −6.0): 93%
Percent Growth (RPMI-8226; Log10 Concentration −7.0): 97%
Percent Growth (RPMI-8226; Log10 Concentration −8.0): 98%
GI50 (RPMI-8226): 5.14 µM
TGI (RPMI-8226): 2.51E−5
CC50 (HT29): ≥ 100 µM
CC50 (HCC-2998): 77.2 µM
CC50 (MCF7): 75.5 µM
CC50 (K-562): > 100 µM
CC50 (NCI-H460): > 100 µM
CC50 (MDA-MB-231/ATCC): 75.5 µM
CC50 (SNB-19): > 100 µM
CC50 (M14): 88.3 µM
CC50 (MDA-MB-435): 52 µM
CC50 (U251): > 100 µM
CC50 (NCI-H322M): > 100 µM
CC50 (786-0): 66.4 µM
CC50 (TK-10): 52.3 µM
CC50 (SR): > 100 µM
CC50 (BT-549): 42.9 µM
CC50 (UO-31): 77.1 µM
CC50 (HS 578T): > 100 µM
CC50 (MALME-3M [1]): 73.3 µM
CC50 (HCT-15): 57.5 µM
CC50 (RXF 393): 62.5 µM
CC50 (OVCAR-5): 92.4 µM
CC50 (PC-3): > 100 µM
CC50 (CAKI-1): 73.8 µM
CC50 (HOP-62): > 100 µM
Percent Growth (MALME-3M [2]; Log10 Concentration −4.0): −67%
Percent Growth (MALME-3M [2]; Log10 Concentration −5.0): 58%
Percent Growth (MALME-3M [2]; Log10 Concentration −6.0): 110%
Percent Growth (MALME-3M [2]; Log10 Concentration −7.0): 111%
Percent Growth (MALME-3M [2]; Log10 Concentration −8.0): 107%
GI50 (MALME-3M [2]; NCI five dose): 11.5 µM
TGI (MALME-3M [2]; NCI five dose): 2.91E−5
CC50 (NCI/ADR-RES): > 100 µM
CC50 (LOX IMVI): 57.1 µM
CC50 (SF-268): 99.1 µM
CC50 (MOLT-4): > 100 µM
CC50 (SW-620): 74 µM
CC50 (SK-MEL-5): > 100 µM
CC50 (SK-MEL-28): 79.4 µM
CC50 (HOP-92): 42.3 µM
CC50 (OVCAR-8): > 100 µM
CC50 (SK-OV-3): > 100 µM
CC50 (T-47D): 87.4 µM
CC50 (NCI-H23): 94.3 µM
CC50 (SF-295): > 100 µM
CC50 (SNB-75): > 100 µM
CC50 (NCI-H522): 9.13 µM
CC50 (UACC-62): 58.3 µM
CC50 (A498): > 100 µM
CC50 (SK-MEL-2): 94.4 µM
CC50 (CCRF-CEM): > 100 µM
CC50 (A549/ATCC): > 100 µM
CC50 (UACC-257): 63.5 µM

C=C1C(=O)O[C@H]2[C@H]1CC/C(COC(=O)NC)=C\CC[C@@]1(C)O[C@@H]21 [JVM 2-57]
Percent Growth (RPMI-8226; Log10 Concentration −4.0): −53%
Percent Growth (RPMI-8226; Log10 Concentration −5.0): 7%
Percent Growth (RPMI-8226; Log10 Concentration −6.0): 87%
Percent Growth (RPMI-8226; Log10 Concentration −7.0): 94%
Percent Growth (RPMI-8226; Log10 Concentration −8.0): 101%
GI50 (RPMI-8226): 2.89 µM
TGI (RPMI-8226): 1.30E−5
CC50 (HT29): 57 µM
CC50 (HCC-2998): 61.6 µM
CC50 (MCF7): 47.7 µM
CC50 (K-562): > 100 µM
CC50 (NCI-H460): 78 µM
CC50 (MDA-MB-231/ATCC): 56.2 µM
CC50 (SNB-19): > 100 µM
CC50 (M14): 66.7 µM
CC50 (MDA-MB-435): 53.1 µM
CC50 (U251): 53 µM
CC50 (NCI-H322M): > 100 µM
CC50 (786-0): 49.6 µM
CC50 (TK-10): 31.8 µM
CC50 (SR): > 100 µM
CC50 (BT-549): 33.1 µM
CC50 (UO-31): 36.9 µM
CC50 (HS 578T): > 100 µM
CC50 (MALME-3M [1]): 55 µM
CC50 (HCT-15): 41.8 µM
CC50 (RXF 393): 44.1 µM
CC50 (OVCAR-5): 44.3 µM
CC50 (PC-3): 71.1 µM
CC50 (CAKI-1): 36.6 µM
CC50 (HOP-62): 59.5 µM
Percent Growth (MALME-3M [2]; Log10 Concentration −4.0): −76%
Percent Growth (MALME-3M [2]; Log10 Concentration −5.0): 25%
Percent Growth (MALME-3M [2]; Log10 Concentration −6.0): 94%
Percent Growth (MALME-3M [2]; Log10 Concentration −7.0): 95%
Percent Growth (MALME-3M [2]; Log10 Concentration −8.0): 95%
GI50 (MALME-3M [2]; NCI five dose): 4.38 µM
TGI (MALME-3M [2]; NCI five dose): 1.77E−5
CC50 (NCI/ADR-RES): > 100 µM
CC50 (LOX IMVI): 43.2 µM
CC50 (SF-268): 68.6 µM
CC50 (MOLT-4): > 100 µM
CC50 (SW-620): 44.7 µM
CC50 (SK-MEL-5): 66 µM
CC50 (SK-MEL-28): 52 µM
CC50 (HOP-92): 29.7 µM
CC50 (OVCAR-8): 57.2 µM
CC50 (SK-OV-3): > 100 µM
CC50 (T-47D): 40.2 µM
CC50 (NCI-H23): 66.1 µM
CC50 (SF-295): > 100 µM
CC50 (SNB-75): > 100 µM
CC50 (NCI-H522): 6.85 µM
CC50 (UACC-62): 50.5 µM
CC50 (A498): 47.4 µM
CC50 (SK-MEL-2): 69 µM
CC50 (CCRF-CEM): 76.3 µM
CC50 (A549/ATCC): 57.7 µM
CC50 (UACC-257): 44.1 µM

Reference: US9469650B2, “Melampomagnolide B derivatives” (BOARD OF TRUSTEES OF THE UNIVERSITY OF ARKANSAS, priority 2013, dated 2016)
